What is called IC50 is the midpoint of a concentration-inhibition curve.

A value given as a limit tells only on which side of the number the result lay.

This assay addresses Glucose-6-phosphate 1-dehydrogenase (Homo sapiens, UniProt P11413). Kind of assay: Inhibition of human recombinant N-terminal His tagged G6PD expressed in Escherichia coli JM109 (DE3) cells assessed as production of NADPH after 30 mins by Amplite fluorimetric assay.

Chain of Glucose-6-phosphate 1-dehydrogenase (P11413 whole entry): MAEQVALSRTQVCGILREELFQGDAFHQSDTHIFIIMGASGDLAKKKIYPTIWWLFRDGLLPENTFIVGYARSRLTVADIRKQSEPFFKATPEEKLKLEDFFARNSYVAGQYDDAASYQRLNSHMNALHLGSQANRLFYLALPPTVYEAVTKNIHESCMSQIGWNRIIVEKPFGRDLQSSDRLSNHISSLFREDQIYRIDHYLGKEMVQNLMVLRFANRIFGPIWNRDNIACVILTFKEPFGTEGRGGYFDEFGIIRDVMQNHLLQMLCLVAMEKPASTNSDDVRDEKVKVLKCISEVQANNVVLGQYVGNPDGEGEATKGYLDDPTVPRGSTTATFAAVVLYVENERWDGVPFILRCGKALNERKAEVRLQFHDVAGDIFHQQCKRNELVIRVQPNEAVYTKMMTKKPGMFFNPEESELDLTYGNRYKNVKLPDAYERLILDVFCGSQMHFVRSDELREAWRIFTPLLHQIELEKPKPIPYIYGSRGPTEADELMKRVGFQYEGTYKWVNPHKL

Turning to `C[C@]12CC[C@H](O)C[C@@H]1CC[C@@H]1[C@@H]2CC[C@]2(C)C(N=O)CC[C@@H]12` (some centres not stated), the IC50 is > 200 µM. In the case of `CC(N=O)[C@H]1CC[C@H]2[C@@H]3CC[C@H]4C[C@@H](O)CC[C@]4(C)[C@H]3CC[C@]12C` (some centres not stated) it was > 200 µM.

These data come from BindingDB's records for doi:10.1021/jm300317k (University of Manchester, 2012).
